According to patent US11279733B2, “Peptide antibiotics” (priority 2017, dated 2022):
Converted amounts (≈) assume the structure as drawn. Like-named read-outs stand apart in the source and are kept apart here. Positions of bridges follow the written chain, without caps; N, C: chain ends. Non-standard residues stand in square brackets, D forms with d. Residues, ends and D or L forms follow the SMILES beside them. *: point of attachment. Ala(benzothiazol-2-yl) = N[C@@H](Cc1nc2ccccc2s1)C(=O)O; Decanoyl(3R-OH) = CCCCCCC[C@@H](O)CC(=O)*; 2Nal = N[C@@H](Cc1ccc2ccccc2c1)C(=O)O; dIgl = N[C@@H](C(=O)O)C1Cc2ccccc2C1; dDab = NCC[C@@H](N)C(=O)O; Heptanoyl = CCCCCCC(=O)*; Octanoyl = CCCCCCCC(=O)*; dDap = NC[C@@H](N)C(=O)O; Dab = NCC[C@H](N)C(=O)O; Dap = NC[C@H](N)C(=O)O

Tests used:
A. baumannii ATCC 19606 = details: ATCC 19606
Outline: (§1)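 Mid-log cultures grown in Mueller Hinton broth at 37° C were tested by 2-fold broth microdilution at 5×10^5 CFU/mL final. Compounds were dissolved in water and tested over a final range of 32 to 0.015 μg/mL.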

A. baumannii GN_093 PmxR = details: GN 093 PmxR
Outline: as §1

E. coli ATCC 25922 = details: ATCC 25922
Outline: as §1

K. pneumoniae ATCC 13883 = details: ATCC 13883
Outline: as §1

[1] = tested on: K. pneumoniae ATCC 700603, MDR; details: ATCC 700603
Outline: as §1

[2] = tested on: K. pneumoniae ATCC BAA-2146, NDM-1 pos; details: ATCC BAA-2146
Outline: as §1

[3] = tested on: K. pneumoniae GN_102 PmxR; details: GN 102 PmxR
Outline: as §1

[4] = tested on: K. pneumoniae GN_106, PmxR; details: GN 106, PmxR
Outline: as §1

P. aeruginosa ATCC 27853 = details: ATCC 27853
Outline: as §1

[5] = tested on: P. aeruginosa GN_043, PmxR
Outline: as §1

[6] = tested on: P. aeruginosa GN_105, PmxR; details: GN 105, PmxR
Outline: as §1

[7] = tested on: S. aureus ATCC 25923, MSSA; details: ATCC 25923
Outline: as §1

in vitro = details: human
Outline: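 Viability is measured by resazurin reduction (5 μM, 2 h, 37 °C) after cells seeded at 4000 per well are treated with compound for 24 h.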

Structure (SMILES) | MIC A. baumannii ATCC 19606 (A. baumannii ATCC 19606) | MIC A. baumannii GN_093 PmxR (A. baumannii GN_093 PmxR) | MIC E. coli ATCC 25922 (E. coli ATCC 25922) | MIC K. pneumoniae ATCC 13883 (K. pneumoniae ATCC 13883) | MIC K. pneumoniae ATCC 700603, MDR [1] | MIC K. pneumoniae ATCC BAA-2146, NDM-1 pos [2] | MIC K. pneumoniae GN_102 PmxR [3] | MIC K. pneumoniae GN_106, PmxR [4] | MIC P. aeruginosa ATCC 27853 (P. aeruginosa ATCC 27853) | MIC P. aeruginosa GN_043, PmxR ([5]; polymyxin-resistant) | MIC P. aeruginosa GN_105, PmxR [6] | MIC S. aureus ATCC 25923, MSSA [7] | CC50 at 24 h (in vitro) | further results
CCCCCCCC(=O)N[C@H](CN)C(=O)N[C@H]1CCNC(=O)[C@H](Cc2c[nH]c3ccccc23)NC(=O)[C@H](CCN)NC(=O)[C@H](CCN)NC(=O)[C@H](CC(C)C)NC(=O)[C@@H](Cc2ccccc2)NC(=O)[C@H](CCN)NC1=O [compound 8887, nC7CO-D-Dap-cyc[L-Dab-L-Dab-D-Phe-L-Leu-L-Dab-L-Dab-L-Trp]] (Octanoyl-[dDap][Dab][Dab][dF]L[Dab][Dab]W; lactam 2-C) | 32 µg/mL (≈ 30.2 µM) | >32 µg/mL | 8 µg/mL (≈ 7.55 µM) | 16 µg/mL (≈ 15.1 µM) | 4 µg/mL (≈ 3.78 µM) | 8 µg/mL (≈ 7.55 µM) | 32 µg/mL (≈ 30.2 µM) | 16 µg/mL (≈ 15.1 µM) | 2 µg/mL (≈ 1.89 µM) | 2 µg/mL (≈ 1.89 µM) | 8 µg/mL (≈ 7.55 µM) | 8 µg/mL (≈ 7.55 µM) | 190 µM | –
CCCCCCC[C@@H](O)CC(=O)N[C@H](CCN)C(=O)N[C@H]1CCNC(=O)[C@H](Cc2c[nH]c3ccccc23)NC(=O)[C@H](CCN)NC(=O)[C@H](CCN)NC(=O)[C@H](CC(C)C)NC(=O)[C@@H](C2Cc3ccccc3C2)NC(=O)[C@H](CCN)NC1=O [compound 8826, nC10-3(R)OH-D-Dab-cyc[L-Dab-L-Dab-D-indanylgyl-L-Leu-L-Dab-L-Dab-L-Trp]] ({Decanoyl(3R-OH)}-[dDab][Dab][Dab][dIgl]L[Dab][Dab]W; lactam 2-C) | 8 µg/mL (≈ 7 µM) | 8 µg/mL (≈ 7 µM) | 8 µg/mL (≈ 7 µM) | 8 µg/mL (≈ 7 µM) | 8 µg/mL (≈ 7 µM) | 4 µg/mL (≈ 3.5 µM) | 8 µg/mL (≈ 7 µM) | 8 µg/mL (≈ 7 µM) | 4 µg/mL (≈ 3.5 µM) | 4 µg/mL (≈ 3.5 µM) | 4 µg/mL (≈ 3.5 µM) | 4 µg/mL (≈ 3.5 µM) | 38 µM | –
CCCCCCC[C@@H](O)CC(=O)N[C@H](CCN)C(=O)N[C@H]1CCNC(=O)[C@H](Cc2nc3ccccc3s2)NC(=O)[C@H](CCN)NC(=O)[C@H](CCN)NC(=O)[C@H](CC(C)C)NC(=O)[C@@H](Cc2ccccc2)NC(=O)[C@H](CCN)NC1=O [compound 8910, 3(R)OH-nC9CO-D-Dab-cyc[L-Dab-L-Dab-D-Phe-L-Leu-L-Dab-L-Dab-L-Ala(Bth)]] ({Decanoyl(3R-OH)}-[dDab][Dab][Dab][dF]L[Dab][Dab][Ala(benzothiazol-2-yl)]; lactam 2-C) | 8 µg/mL (≈ 7.05 µM) | 4 µg/mL (≈ 3.52 µM) | 2 µg/mL (≈ 1.76 µM) | 4 µg/mL (≈ 3.52 µM) | 4 µg/mL (≈ 3.52 µM) | 4 µg/mL (≈ 3.52 µM) | 8 µg/mL (≈ 7.05 µM) | 4 µg/mL (≈ 3.52 µM) | 2 µg/mL (≈ 1.76 µM) | 4 µg/mL (≈ 3.52 µM) | 2 µg/mL (≈ 1.76 µM) | 4 µg/mL (≈ 3.52 µM) | 47 µM | –
CCCCCCC[C@@H](O)CC(=O)N[C@H](CCN)C(=O)N[C@H]1CCNC(=O)[C@H](Cc2ccc3ccccc3c2)NC(=O)[C@H](CCN)NC(=O)[C@H](CCN)NC(=O)[C@H](CC(C)C)NC(=O)[C@@H](Cc2ccccc2)NC(=O)[C@H](CCN)NC1=O [compound 8908, 3(R)OH-nC9CO-D-Dab-cyc[L-Dab-L-Dab-D-Phe-L-Leu-L-Dab-L-Dab-L-Ala(2Naphthyl)]] ({Decanoyl(3R-OH)}-[dDab][Dab][Dab][dF]L[Dab][Dab][2Nal]; lactam 2-C) | 4 µg/mL (≈ 3.54 µM) | 4 µg/mL (≈ 3.54 µM) | 2 µg/mL (≈ 1.77 µM) | 2 µg/mL (≈ 1.77 µM) | 4 µg/mL (≈ 3.54 µM) | 4 µg/mL (≈ 3.54 µM) | 4 µg/mL (≈ 3.54 µM) | 4 µg/mL (≈ 3.54 µM) | 4 µg/mL (≈ 3.54 µM) | 4 µg/mL (≈ 3.54 µM) | 2 µg/mL (≈ 1.77 µM) | 4 µg/mL (≈ 3.54 µM) | 39 µM | –
CCCCCCCC(=O)N[C@H](CN)C(=O)N[C@H]1CCNC(=O)[C@H](CC(C)C)NC(=O)[C@H](CCN)NC(=O)[C@H](CCN)NC(=O)[C@H](CC(C)C)NC(=O)[C@@H](Cc2ccccc2)NC(=O)[C@H](CCN)NC1=O [compound 8976, nC7CO-D-Dap-cyc[L-Dab-L-Dab-D-Phe-L-Leu-L-Dab-L-Dab-L-Leu]] (Octanoyl-[dDap][Dab][Dab][dF]L[Dab][Dab]L; lactam 2-C) | – | 8 µg/mL (≈ 8.11 µM) | – | – | – | – | 16 µg/mL (≈ 16.2 µM) | 16 µg/mL (≈ 16.2 µM) | – | – | 2 µg/mL (≈ 2.03 µM) | – | > 300 µM | MIC, A. baumannii ATCC 19606 (A. baumannii ATCC 19606): >32 µg/mL; MIC, E. coli ATCC 25922 (E. coli ATCC 25922): 4 µg/mL (≈ 4.06 µM); MIC, K. pneumoniae ATCC 13883 (K. pneumoniae ATCC 13883): 8 µg/mL (≈ 8.11 µM); MIC, K. pneumoniae ATCC 700603, MDR [1]: 8 µg/mL (≈ 8.11 µM); MIC, K. pneumoniae ATCC BAA-2146, NDM-1 pos [2]: 8 µg/mL (≈ 8.11 µM); MIC, P. aeruginosa ATCC 27853 (P. aeruginosa ATCC 27853): 2 µg/mL (≈ 2.03 µM); MIC P. aeruginosa GN_043, PmxR ([5]; Table 6, polymyxin-resistant): 2 µg/mL (≈ 2.03 µM); MIC, S. aureus ATCC 25923, MSSA [7]: >32 µg/mL
CCCCCCC[C@@H](O)CC(=O)N[C@H](CCCCN)C(=O)N[C@H]1CCNC(=O)[C@H](CC(C)C)NC(=O)[C@H](CCN)NC(=O)[C@H](CCN)NC(=O)[C@H](CC(C)C)NC(=O)[C@@H](Cc2ccccc2)NC(=O)[C@H](CCN)NC1=O [compound 5381, 3(R)OH-nC9CO-D-Lys-cyc[L-Dab-L-Dab-D-Phe-L-Leu-L-Dab-L-Dab-L-Leu]] ({Decanoyl(3R-OH)}-[dK][Dab][Dab][dF]L[Dab][Dab]L; lactam 2-C) | – | 8 µg/mL (≈ 7.46 µM) | – | – | – | – | 4 µg/mL (≈ 3.73 µM) | 4 µg/mL (≈ 3.73 µM) | – | – | 4 µg/mL (≈ 3.73 µM) | – | > 300 µM | MIC, A. baumannii ATCC 19606 (A. baumannii ATCC 19606): 16 µg/mL (≈ 14.9 µM); MIC, E. coli ATCC 25922 (E. coli ATCC 25922): 8 µg/mL (≈ 7.46 µM); MIC, K. pneumoniae ATCC 13883 (K. pneumoniae ATCC 13883): 8 µg/mL (≈ 7.46 µM); MIC, K. pneumoniae ATCC 700603, MDR [1]: 4 µg/mL (≈ 3.73 µM); MIC, K. pneumoniae ATCC BAA-2146, NDM-1 pos [2]: 8 µg/mL (≈ 7.46 µM); MIC, P. aeruginosa ATCC 27853 (P. aeruginosa ATCC 27853): 4 µg/mL (≈ 3.73 µM); MIC P. aeruginosa GN_043, PmxR ([5]; Table 6, polymyxin-resistant): 2 µg/mL (≈ 1.86 µM); MIC, S. aureus ATCC 25923, MSSA [7]: >32 µg/mL
CCCCCCC[C@@H](O)CC(=O)N[C@@H](CCN)C(=O)N[C@H]1CCNC(=O)[C@H](CC(C)C)NC(=O)[C@H](CN)NC(=O)[C@H](CCN)NC(=O)[C@H](CC(C)C)NC(=O)[C@@H](Cc2ccccc2)NC(=O)[C@H](CCN)NC1=O [compound 5564, 3(R)OH-nC9CO-L-Dab-cyc[L-Dab-L-Dab-D-Phe-L-Leu-L-Dab-L-Dap-L-Leu]] ({Decanoyl(3R-OH)}-[Dab][Dab][Dab][dF]L[Dab][Dap]L; lactam 2-C) | >32 µg/mL | 32 µg/mL (≈ 31.1 µM) | 8 µg/mL (≈ 7.76 µM) | 8 µg/mL (≈ 7.76 µM) | 16 µg/mL (≈ 15.5 µM) | 8 µg/mL (≈ 7.76 µM) | 4 µg/mL (≈ 3.88 µM) | 8 µg/mL (≈ 7.76 µM) | 2 µg/mL (≈ 1.94 µM) | 2 µg/mL (≈ 1.94 µM) | 32 µg/mL (≈ 31.1 µM) | 32 µg/mL (≈ 31.1 µM) | > 300 µM | –
CCCCCCC(=O)N[C@H](CN)C(=O)N[C@H]1CCNC(=O)[C@H](CC(C)C)NC(=O)[C@H](CCN)NC(=O)[C@H](CCN)NC(=O)[C@H](CC(C)C)NC(=O)[C@@H](Cc2ccccc2)NC(=O)[C@H](CCN)NC1=O [compound 9190, nC6CO-D-Dap-cyc[L-Dab-L-Dab-D-Phe-L-Leu-L-Dab-L-Dab-L-Leu]] (Heptanoyl-[dDap][Dab][Dab][dF]L[Dab][Dab]L; lactam 2-C) | >32 µg/mL | >32 µg/mL | 8 µg/mL (≈ 8.23 µM) | 16 µg/mL (≈ 16.5 µM) | 16 µg/mL (≈ 16.5 µM) | 16 µg/mL (≈ 16.5 µM) | 32 µg/mL (≈ 32.9 µM) | >32 µg/mL | 2 µg/mL (≈ 2.06 µM) | – | 8 µg/mL (≈ 8.23 µM) | >32 µg/mL | > 300 µM | MIC P. aeruginosa GN_043, PmxR ([5]; P. aeruginosa GN_043, PmxR): 4 µg/mL (≈ 4.11 µM)
